Experimental data published in ChEMBL document CHEMBL1201862, “PubChem BioAssay data set” (2004).
Calls of active or inactive are those of the source.

Key:
[1] = target: T1, Endoribonuclease toxin MazF (Escherichia coli K-12, UniProt P0AE70); assay: MazF toxin RNase activators, dose response, biochemical, fluorescence, single-stranded RNA substrate, uHTS hits (AID 588481); type: functional
T1 sequence (P0AE70 whole entry): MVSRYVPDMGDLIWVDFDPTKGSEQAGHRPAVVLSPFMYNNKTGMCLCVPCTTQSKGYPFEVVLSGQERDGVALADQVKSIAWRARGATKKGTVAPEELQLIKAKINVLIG

[2] = target: T1, Endoribonuclease toxin MazF; assay: fluorescent RNA oligo signal without MazF, dose response, counter-screen for MazEF activator project, biochemical, fluorescence, single-stranded RNase substrate (AID 588502); type: functional
[3] = cytotoxicity toward NIH3T3 fibroblasts, dose response, counter-screen, cell-based, ATP luminescence, mouse fibroblasts (AID 2010); type: functional;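 note: cells exposed to compound for about 90 hours before reading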
[4] = target: T2, Adenosylmethionine-8-amino-7-oxononanoate aminotransferase (Mycobacterium tuberculosis, UniProt P9WQ81); assay: Mycobacterium tuberculosis BioA enzyme inhibitor Measured in Biochemical System Using Plate Reader - 2163-02_Inhibitor_Dose_CherryPick_Activity.; type: functional, Mycobacterium tuberculosis UT205
T2 sequence (P9WQ81 whole entry): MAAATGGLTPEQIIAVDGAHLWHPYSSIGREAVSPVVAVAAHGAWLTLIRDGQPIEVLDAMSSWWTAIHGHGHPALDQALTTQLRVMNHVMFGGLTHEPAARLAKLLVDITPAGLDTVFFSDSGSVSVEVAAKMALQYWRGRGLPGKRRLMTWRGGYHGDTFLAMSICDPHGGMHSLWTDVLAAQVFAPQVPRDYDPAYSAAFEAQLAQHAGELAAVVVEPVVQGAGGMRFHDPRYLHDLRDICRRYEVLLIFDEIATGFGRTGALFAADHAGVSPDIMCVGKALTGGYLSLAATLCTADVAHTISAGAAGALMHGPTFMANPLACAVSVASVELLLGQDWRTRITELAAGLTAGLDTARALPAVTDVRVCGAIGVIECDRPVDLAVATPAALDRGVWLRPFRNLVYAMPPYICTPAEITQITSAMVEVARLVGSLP

[5] = inhibitors of intracellular T. cruzi replication, confirmation, NIH3T3 host cells, beta-gal luminescence (AID 2044); type: functional, cell-based;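 note: intracellular parasites grown in NIH/3T3 mouse fibroblasts as host cells; luminescent beta-galactosidase reporter signal from transgenic T. cruzi replicating inside host cells; inhibitors lower the luminescence signal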
[6] = tested on: Cryptococcus neoformans; assay: PubChem AID 686997; type: functional, organism-based; details: Cryptococcus neoformans
[7] = target: T3, Protein RecA (Mycobacterium tuberculosis, UniProt P9WHJ3); assay: Fluorescence Cell-Free Homogeneous Dose Retest to Identify Inhibitors of RecA-Intein Splicing Activity. [Related pubchem assays (depositor defined):AID2097, AID2223, AID489010, AID492950]; type: functional
T3 sequence (P9WHJ3 whole entry): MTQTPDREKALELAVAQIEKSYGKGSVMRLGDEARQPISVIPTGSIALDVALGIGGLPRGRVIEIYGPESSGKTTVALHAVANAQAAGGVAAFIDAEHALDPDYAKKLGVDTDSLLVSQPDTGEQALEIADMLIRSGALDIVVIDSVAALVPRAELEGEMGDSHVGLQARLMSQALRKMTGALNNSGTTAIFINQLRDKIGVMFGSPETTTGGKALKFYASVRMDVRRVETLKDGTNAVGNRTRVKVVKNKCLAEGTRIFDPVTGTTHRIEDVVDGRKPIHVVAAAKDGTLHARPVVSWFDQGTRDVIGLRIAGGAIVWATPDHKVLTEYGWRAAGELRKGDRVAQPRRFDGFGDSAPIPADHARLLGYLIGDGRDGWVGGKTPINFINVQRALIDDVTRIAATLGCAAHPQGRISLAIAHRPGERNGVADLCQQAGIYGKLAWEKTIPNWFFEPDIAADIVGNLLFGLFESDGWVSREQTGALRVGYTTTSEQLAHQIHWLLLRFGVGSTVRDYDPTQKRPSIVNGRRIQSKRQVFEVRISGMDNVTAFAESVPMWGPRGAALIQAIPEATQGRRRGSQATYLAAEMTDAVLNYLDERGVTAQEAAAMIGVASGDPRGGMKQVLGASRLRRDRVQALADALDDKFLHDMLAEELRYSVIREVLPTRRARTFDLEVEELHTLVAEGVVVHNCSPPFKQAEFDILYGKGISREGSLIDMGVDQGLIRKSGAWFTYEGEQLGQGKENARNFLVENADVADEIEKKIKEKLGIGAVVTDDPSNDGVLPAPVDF

[8] = target: T4, Replicative DNA helicase DnaB (Mycobacterium tuberculosis, UniProt P9WMR3); assay: DnaB intein splicing inhibitors, dose response, biochemical, cell-free fluorescence (AID 449749); type: functional
T4 sequence (P9WMR3 whole entry): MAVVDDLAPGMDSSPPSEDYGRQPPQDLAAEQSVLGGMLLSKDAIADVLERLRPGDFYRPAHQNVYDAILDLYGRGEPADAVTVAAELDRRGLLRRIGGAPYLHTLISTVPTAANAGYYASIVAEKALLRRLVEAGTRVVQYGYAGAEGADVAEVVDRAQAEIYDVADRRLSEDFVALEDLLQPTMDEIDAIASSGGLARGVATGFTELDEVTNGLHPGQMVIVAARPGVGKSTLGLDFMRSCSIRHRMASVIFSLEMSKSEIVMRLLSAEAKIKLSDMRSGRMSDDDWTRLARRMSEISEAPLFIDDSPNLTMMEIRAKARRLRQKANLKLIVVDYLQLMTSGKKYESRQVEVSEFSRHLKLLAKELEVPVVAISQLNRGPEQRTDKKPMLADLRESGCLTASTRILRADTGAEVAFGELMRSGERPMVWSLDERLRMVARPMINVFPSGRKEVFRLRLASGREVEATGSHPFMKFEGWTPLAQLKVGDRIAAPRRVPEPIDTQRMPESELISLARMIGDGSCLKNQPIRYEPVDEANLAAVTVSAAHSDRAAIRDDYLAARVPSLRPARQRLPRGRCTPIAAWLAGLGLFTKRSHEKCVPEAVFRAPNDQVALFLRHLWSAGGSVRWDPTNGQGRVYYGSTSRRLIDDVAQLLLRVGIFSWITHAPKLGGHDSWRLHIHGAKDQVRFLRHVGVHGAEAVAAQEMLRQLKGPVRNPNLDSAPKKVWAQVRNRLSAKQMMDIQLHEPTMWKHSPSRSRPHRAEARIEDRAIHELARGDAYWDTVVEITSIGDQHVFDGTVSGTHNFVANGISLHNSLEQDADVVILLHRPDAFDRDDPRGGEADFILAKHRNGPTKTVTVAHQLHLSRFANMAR

[9] = tested on: Vero; assay: cells; type: functional; details: Chlorocebus sabaeus
[10] = tested on: HEK293; assay: inhibitors of LMP1-driven NF-kB reporter, dose response, cell-based, HEK293, luciferase, cherry-pick (AID 588343); type: functional; details: Homo sapiens
[11] = inhibitors of HIV Env-driven cell fusion, dose response, cherry-pick (AID 652057); type: functional, cell-based
[12] = inhibitors of clade B AD8 Env fusion, dose response, cell-based, cherry-pick (AID 652062); type: functional;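 note: luciferase signal from cell-cell fusion driven by HIV-1 clade B AD8 Env; potency is for inhibitors of fusion seen as a drop in luminescence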
[13] = CEM21 lymphoblast cell cytotoxicity, dose response, cytotoxicity control for viral fusion inhibitor project, CellTiter-Glo luminescence, cherry-picked (AID 652042); type: functional, cell-based;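 note: potency for signal decrease meaning cytotoxicity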
[14] = tested on: INS1; assay: beta cell apoptosis inhibitors, cytokine rescue, dose response, luminescence, retest (AID 449756); type: functional, cell-based; details: Rattus norvegicus;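 note: cell death triggered by IL-1 beta plus TNF-alpha plus IFN-gamma mixture; protective hits raise ATP signal compared with cytokine alone wells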
[15] = tested on: Streptococcus; assay: Group A Streptococcus viability loss, dose response, counter-screen for streptokinase expression inhibitor project, luminescence, BacTiterGlo (AID 1915); type: functional, organism-based;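 note: potency for reduction of bacterial viability or growth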
[16] = control 3'UTR Renilla luciferase suppression, dose response, counter-screen for Shn3 inhibitor project, cell-based, Clone20-Shn3RL, cherry-picked (AID 624133); type: functional
[17] = HepG2 cell cytotoxicity, dose response, cytotoxicity control for Shn3 inhibitor project, CellTiter-Glo, cherry-picked (AID 624134); type: functional, cell-based
[18] = tested on: Streptococcus sp. 'group A'; assay: growth inhibition of control SK(-) GAS strain, dose response, counter-screen for streptokinase expression inhibitor project, luminescence, kanamycin, BacTiterGlo, confirmation (AID 1900); type: functional, organism-based
[19] = Shn3 3'UTR reporter inhibitors, dose response, cell-based, Clone20 osteoblasts, firefly luciferase, cherry-picked (AID 624132); type: functional;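 note: firefly luciferase luminescence from reporter carrying the Shn3 3'UTR in osteoblasts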
[20] = tested on: H9c2; assay: cells; type: functional, cell-based; details: Rattus norvegicus, H9c2, Myocardium;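 note: confirmatory concentration-response retest of ultra-high-throughput screening hits for modulation of myocardial damage; cell death induced by hydrogen peroxide oxidative stress; compound pretreatment for 60 min then peroxide exposure for 2 h; potency is for protecting the cells against peroxide damage rather than for killing them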
[21] = T. cruzi growth inhibition in host cells, dose response, cell-based, plate reader, dry powder, set 2 (AID 652275); type: functional

## C=CCSC1=N/C(=C\c2cc(OC)c3c(c2)OCO3)C(=O)S1
[1]
  EC50: 20.7 µM (inactive)
[2]
  EC50: 64.5 µM (inactive)

## O=C(Nc1ccc(F)c(Cl)c1)C1CCCN(c2cnccn2)C1 (configuration not stated)
[3]
  EC50: > 60 µM (not active)
[4]
  AC50: 3.25 µM (active)
[5]
  EC50: 0.39 µM (active)

## Cc1ccc(C)c(Nc2nc3c(S(=O)(=O)c4ccccc4)nnn3c3ccccc23)c1
[1]
  EC50: > 99 µM (inactive)
[2]
  EC50: > 99 µM (inactive)

## COc1cccc(NC(=S)N2CCC(Cc3ccccc3)CC2)c1
[6]
  AC50: 36.8 µM (active)

## Clc1ccc(CSc2nnc(-c3cccnc3)o2)cc1
[4]
  AC50: 4.13 µM (active)

## CCCCN1C(=O)c2ccc(C(=O)Nc3cccnc3)cc2C1=O
[4]
  AC50: 0.544 µM (active)

## CN1/C(=C/C(=O)c2ccc(Cl)cc2)Sc2cc3c(cc21)OCO3
[1]
  EC50: > 99 µM (inactive)
[2]
  EC50: 62.3 µM (inactive)

## Cc1ccccc1N(Cc1cc(O)nc2ccccc12)C(=O)CCl
[7]
  EC50: 6.26 µM (active)
[8]
  AC50: 50.5 µM (active)
[9]
  CC50: 17.5 µM (active)

## CCCN(CCC)c1[nH]cnc2ncnc1-2
[10]
  AC50: 21.2 µM (active)

## O=C(OCCOc1cccc(Cl)c1)c1cc(S(=O)(=O)N2CCCCC2)ccc1N1CCOCC1
[11]
  AC50: 48.3 µM (active)
[12]
  AC50: 22.1 µM (active)
[3]
  EC50: > 30 µM (not active)
[13]
  AC50: 52.3 µM (active)
[14]
  AC50: 4.81 µM (active)
[5]
  EC50: 3.05 µM (active)

## CCCN(CCC)S(=O)(=O)c1ccc(C(=O)Nc2nnc(-c3cc(OC)cc(OC)c3)o2)cc1
[15]
  EC50: 0.43 µM (active)
[16]
  AC50: 3.45 µM (active)
[17]
  AC50: 1.33 µM (active)
[3]
  EC50: 3.92 µM (active)
[18]
  EC50: 0.12 µM (active)
[10]
  AC50: 2.51 µM (active)
[19]
  AC50: 2.64 µM (active)
[5]
  EC50: 0.965 µM (active)
[20]
  IC50: > 79 µM (inactive)

## Nc1nc(N)c2cc(S(=O)(=O)c3ccc4ccccc4c3)ccc2n1
[17]
  AC50: 2.82 µM (active)
[1]
  EC50: > 99 µM (inactive)
[2]
  EC50: > 99 µM (inactive)
[19]
  AC50: 3.37 µM (active)

## COc1ccccc1CN(C)C[C@H]1Oc2c(NC(=O)c3ccncc3)cccc2C(=O)N([C@@H](C)CO)C[C@@H]1C
[21]
  AC50: 0.078 µM (active)

## CC(C)N1C[C@@H](CN(C)Cc2ccc(Cl)cc2)Oc2c(C(=O)Nc3ccncc3)cccc2C1=O
[21]
  AC50: 0.00079 µM (active)
